According to US20050107400A1, “Use of pyrazolopyridines as therapeutic compounds” (priority 2001, published 2005):

tested on: HSV-1; assay: HSV-1 replication in infected Vero 76 cells, DNA hybridization capture assay; assay type: cell-based, herpes simplex virus 1; settings: Human alphaherpesvirus 1, Vero 76
Protocol: a) Tissue Culture and HSV Infection.
Vero 76 cells were maintained in MEM with Earle's salts, L-glutamine, 8% FBS (Hyclone, A-1111-L) and 100 units/mL Penicillin-100 μg/mL Streptomycin. For assay conditions, FBS was reduced to 2%. Cells are seeded into 96-well tissue culture plates at a density of 5×10^4 cells/well after being incubated for 45 min at 37° C. in the presence of HSV-1 or HSV-2 (MOI=0.001). Test compounds are added to the wells and the plates are incubated at 37° C. for 40-48 hours. Cell lysates are prepared as follows: media was removed and replaced with 150 μL/well 0.2 N NaOH with 1% Igepal CA 630 or NP-40. Plates were incubated up to 14 days at room temperature in a humidified chamber to prevent evaporation.
(b) Preparation of Detection DNA.
For the detection probe, a gel-purified, digoxigenin-labeled, […] PCR fragment of the HSV UL-15 sequence was utilized. PCR conditions included 0.5 μM primers, 180 μM dTTP, 20 μM dUTP-digoxigenin (Boehringer Mannheim 1558706), 200 μM each of dATP, dCTP, and dGTP, 1×PCR Buffer II (Perkin Elmer), 2.5 mM MgCl2, 0.025 units/μL of AmpliTaq Gold polymerase (Perkin Elmer), and 5 ng of gel-purified HSV DNA per 100 μL Extension conditions were 10 min at 95° C., followed by 30 cycles of 95° C. for 1 min, 55° C. for 30 sec, and 72° C. for 2 min. The amplification was completed with a 10-min incubation at 72° C. Primers were selected to amplify a 728 bp probe spanning a section of the HSV1 UL15 open reading frame (nucleotides 249-977). Single-stranded transcripts were purified with Promega M13 Wizard kits. The final product was mixed 1:1 with a mixture of 6 M GuSCN, 100 mM EDTA and 200 μg/mL herring sperm DNA and stored at 4° C.
(c) Preparation of Capture Plates.
The capture DNA plasmid (HSV UL13 region in pUC) was linearized by cutting with Xba I, denatured for 15 min at 95° C. and diluted immediately into Reacti-Bind DNA Coating Solution (Pierce, 17250, diluted 1:1 with TE buffer, pH 8) at 1 ng/μL. 75 μL/well were added to Corning (#3922 or 9690) white 96-well plates and incubated at room temperature for at least 4 hrs before washing twice with 300 μL/well 0.2×SSC/0.05% Tween-20 (SSC/T buffer). The plates were then incubated overnight at room temperature with 150 μL/well 0.2 N NaOH, 1% IGEPAL and 10 μg/mL herring sperm DNA.
Twenty-seven (27) μL of cell lysate was combined with 45 μL of hybridization solution (final concentration: 3M GuSCN, 50 mM EDTA, 100 μg/ml salmon sperm DNA, 5×Denhardt's solution, 0.25×APE, and 5 ng of the digoxigenin-labeled detection probe). APE is 1.5 M NH4-acetate, 0.15 M NH4H2 phosphate, and 5 mM EDTA adjusted to pH 6.0. Mineral oil (50 μL) was added to prevent evaporation. The hybridization plates were incubated at 95° C. for 10 minutes to denature the DNA, then incubated at 42° C. overnight. The wells were washed 6× with 300 μL/well SSC/T buffer then incubated with 75 μL/well anti-digoxigenin-HRP-conjugated antibody (Boehringer Mannheim 1207733, 1:5000 in TE) for 30 min at room temperature. The wells were washed 6× with 300 μL/well with PBS/0.05% Tween-20 before 75 μL/well SuperSignal LBA substrate (Pierce) was added. The plates were incubated at room temperature for 30 minutes and chemiluminescence was measured in a Wallac Victor reader.
The following results were obtained for HSV-1.

Q: `CN1CCN(CCCNc2nccc(-c3c(-c4ccc(F)cc4)nn4cc(C(F)(F)F)ccc34)n2)CC1` [Example 32, N-{4-[2-(4-fluorophenyl)-6-(trifluoromethyl)pyrazolo-[1,5-a]pyridin-3-yl]pyrimidin-2-yl}-N-[3-(4-methylpiperazin-1-yl)propyl]amine] was tested. Which IC50 did it give?
A: 10 µM

same assay, conditions: Human alphaherpesvirus 1; HSV-1 in Vero 76 cells, MOI=0.001, 40-48 hours at 37° C.; read-out: IC50

Q: `Cc1ccc2c(-c3ccnc(NC4CCCC4)n3)c(-c3ccc(F)cc3)nn2c1` [Example 34, N-Cyclopentyl-4-[2-(4-fluorophenyl)-6-methylpyrazolo[1,5-a]pyridin-3-yl]-2-pyrimidinamine] was tested. Which IC50 did it give?
A: 2 µM

Q: For `Fc1ccc(-c2nn3cc(CNC4CCCC4)ccc3c2-c2ccnc(NC3CCCC3)n2)cc1` [Example 35, N-Cyclopentyl-4-[6-[(cyclopentylamino)methyl]-2-(4-fluorophenyl)-pyrazolo[1,5-a]pyridin-3-yl]-2-pyrimidinamine], which IC50 is on record?
A: 4.5 µM

Q: For `Fc1ccc(-c2nn3ccc(Cl)cc3c2-c2ccnc(NC3CCCC3)n2)cc1` [Example 36, 4-[5-Chloro-2-(4-fluorophenyl)pyrazolo[1,5-a]pyridin-3-yl]-N-cyclopentyl-2-pyrimidinamine], which IC50 is on record?
A: 5 µM

Q: Which IC50 does the source give for `Fc1ccc(-c2nn3ccc(N4CCCC4)cc3c2-c2ccnc(NC3CCCC3)n2)cc1` [Example 37, N-Cyclopentyl-4-[2-(4-fluorophenyl)-5-(1-pyrrolidinyl)pyrazolo[1,5-a]pyridin-3-yl]-2-pyrimidinamine] here?
A: 1.4 µM

Q: `COc1ccc(-c2nn3ccc(Cl)cc3c2-c2ccnc(NC3CCCC3)n2)cc1` [Example 38, 4-[5-Chloro-2-(4-methoxyphenyl)pyrazolo[1,5-a]pyridin-3-yl]-N-cyclopentyl-2-pyrimidinamine] was tested. Which IC50 did it give?
A: 3.8 µM

Q: With `O=C1CCCN1CCCNc1cc(-c2c(-c3ccc(F)cc3)nn3ccccc23)ccn1` [Example 39, 1-[3-({4-[2-(4-fluorophenyl)-pyrazolo[1,5-a]pyridin-3-yl]-2-pyridinyl}amino)propyl]-2-pyrrolidinone] as the compound, how does the IC50 read?
A: 1.7 µM

Q: How did the IC50 turn out when `CNc1cc(-c2c(-c3ccc(F)cc3)nn3ccccc23)cc(F)n1` [Example 40, 6-Fluoro-4-[2-(4-fluorophenyl)-pyrazolo[1,5-a]pyridin-3-yl]-N-methyl-2-pyridinamine] was run?
A: 5.3 µM

Q: How did the IC50 turn out when `CN(C)c1cc(-c2c(-c3ccc(F)cc3)nn3cccc(F)c23)ccn1` [Example 41, 4-[4-Fluoro-2-(4-fluorophenyl)-pyrazolo[1,5-a]pyridin-3-yl]-N,N-dimethyl-2-pyridinamine] was run?
A: 21.6 µM

Q: For `C=CCNc1cc(-c2c(-c3ccc(F)cc3)nn3ccccc23)ccn1` [Example 42, N-Allyl-4-[2-(4-fluorophenyl)pyrazolo-[1,5-a]pyridin-3-yl]-2-pyridinamine], which IC50 is on record?
A: 5 µM

Q: How did the IC50 turn out when `Fc1ccc(-c2nn3cc(Cl)ccc3c2-c2ccc(NC3CC3)nc2)cc1` [Example 43, 5-[6-Chloro-2-(4-fluorophenyl)-pyrazolo[1,5-a]pyridin-3-yl]-N-cyclopropyl-2-pyridinamine] was run?
A: 2.4 µM

Q: With `OCCCNc1cc(-c2c(-c3ccc(F)cc3)nn3ccccc23)c(Br)cn1` [Example 44, 3-({5-Bromo-4-[2-(4-fluorophenyl)-pyrazolo[1,5-a]pyridin-3-yl]-2-pyridinyl}amino)-1-propanol] as the compound, how does the IC50 read?
A: 6.3 µM

Q: With `COC(=O)c1ccc2c(-c3ccnc(NCCCOC(C)=O)c3)c(-c3ccc(F)cc3)nn2c1` [Example 45, Methyl 3-(2-{[3-(acetyloxy)propyl]-amino}-4-pyridinyl)-2-(4-fluorophenyl)pyrazolo[1,5-a]pyridine-6-carboxylate] as the compound, how does the IC50 read?
A: 2.6 µM

Q: Which IC50 does the source give for `CN(C)C(=O)c1ccc2c(-c3ccnc(NC4CC4)n3)c(-c3ccc(F)cc3)nn2c1` [Example 47, 3-[2-(Cyclopropylamino)-4-pyrimidinyl]-2-(4-fluorophenyl)-N,N-dimethylpyrazolo[1,5-a]pyridine-6-carboxamide] here?
A: 1 µM

Q: With `O=C(NC1CC1)c1ccc2c(-c3ccnc(NC4CC4)n3)c(-c3ccc(F)cc3)nn2c1` [Example 48, N-Cyclopropyl-3-[2-(cyclopropylamino)-4-pyrimidinyl]-2-(4-fluorophenyl)pyrazolo[1,5-a]pyridine-6-carboxamide] as the compound, how does the IC50 read?
A: 0.9 µM

Q: For `Fc1ccc(-c2nn3ccccc3c2-c2cc(-c3ccccc3)nc(NC3CCCC3)n2)cc1` [Example 49, N-Cyclopentyl-4-[2-(4-fluorophenyl)pyrazolo[1,5-a]pyridin-3-yl]-6-phenyl-2-pyrimidinamine], which IC50 is on record?
A: 2.9 µM

Q: Which IC50 does the source give for `CCCCNc1nccc(-c2c(-c3ccc(F)cc3)nn3c(OCCF)cccc23)n1` [Example 57, N-Butyl-4-[7-(2-fluoroethoxy)-2-(4-fluorophenyl)pyrazolo[1,5-a]pyridin-3-yl]-2-pyrimidinamine] here?
A: 2.5 µM

Q: With `CSc1nccc(-c2c(-c3ccc(F)cc3)nn3c(OCC(F)(F)F)cccc23)n1` [Example 59, 2-(4-Fluorophenyl)-3-(4-(2-methylthio)pyrimidinyl)-7-(2,2,2-trifluoroethoxy)pyrazolo[1,5-a]pyridine] as the compound, how does the IC50 read?
A: 10 µM

Q: For `CCCCNc1nccc(-c2c(-c3ccc(F)cc3)nn3c(OCC(F)(F)F)cccc23)n1` [Example 60, N-Butyl-4-[2-(4-fluorophenyl)-7-(2,2,2-trifluoroethoxy)pyrazolo[1,5-a]pyridin-3-yl]-2-pyrimidinamine], which IC50 is on record?
A: 5 µM

Q: For `Fc1ccc(-c2nn3c(OCC(F)(F)F)cccc3c2-c2ccnc(NC3CC3)n2)cc1` [Example 62, N-Cyclopropyl-4-[2-(4-fluorophenyl)-7-(2,2,2-trifluoroethoxy)pyrazolo [1,5-a]pyridin-3-yl]-2-pyrimidinamine], which IC50 is on record?
A: 2 µM

Q: For `Fc1ccc(-c2nn3c(OCC(F)(F)F)cccc3c2-c2ccnc(NC3CCCCC3)n2)cc1` [Example 64, N-Cyclohexyl-4-[2-(4-fluorophenyl)-7-(2,2,2-trifluoroethoxy)pyrazolo[1,5-a]pyridin-3-yl]-2-pyrimidinamine], which IC50 is on record?
A: 0.9 µM

Q: For `COc1nccc(-c2c(-c3ccc(F)cc3)nn3c(OCC(F)(F)F)cccc23)n1` [Example 66, 2-(4-Fluorophenyl)-3-(4-(2-methyloxy)pyrimidinyl)-7-(2,2,2-trifluoroethoxy)pyrazolo[1,5-a]pyridine], which IC50 is on record?
A: 25 µM

Q: How did the IC50 turn out when `Fc1ccc(-c2nn3c(OCC(F)(F)F)cccc3c2-c2ccnc(Oc3ccccc3)n2)cc1` [Example 67, 2-(4-Fluorophenyl)-3-(4-(2-phenyloxy)pyrimidinyl)-7-(2,2,2-trifluoroethoxy)pyrazolo[1,5-a]pyridine] was run?
A: 15 µM

Q: How did the IC50 turn out when `Fc1ccc(-c2nn3c(OCC(F)(F)F)cccc3c2-c2ccnc(OCC(F)(F)F)n2)cc1` [Example 68, 2-(4-Fluorophenyl)-3-(4-(2-(2,2,2-trifluoroethoxy))pyrimidinyl)-7-(2,2,2-trifluoroethoxy)pyrazolo[1,5-a]pyridine] was run?
A: 15 µM

Q: With `Cc1c(C(=O)NC2CC2)ccc2c(-c3ccnc(NC4CCCC4)n3)c(-c3ccc(F)cc3)nn12` [Example 83, 3-[2-(Cyclopentylamino)-4-pyrimidinyl]-N-cyclopropyl-2-(4-fluorophenyl)-7-methylpyrazolo[1,5-a]pyridine-6-carboxamide] as the compound, how does the IC50 read?
A: 1 µM

Q: With `CCCCNc1nccc(-c2c(-c3ccc(F)cc3)nn3c(CCCC)cccc23)n1` [Example 84, N-Butyl-4-[7-butyl-2-(4-fluorophenyl)pyrazolo[1,5-a]pyridin-3-yl]-2-pyrimidinamine] as the compound, how does the IC50 read?
A: 0.6 µM

Q: How did the IC50 turn out when `CCCCNc1nccc(-c2c(-c3ccc(F)cc3)nn3c(C)cccc23)n1` [Example 85, N-Butyl-4-[2-(4-fluorophenyl)-7-methylpyrazolo[1,5-a]pyridin-3-yl]-2-pyrimidinamine] was run?
A: 1 µM

Q: How did the IC50 turn out when `CCCCCCCCc1cccc2c(-c3ccnc(NCCCC)n3)c(-c3ccc(F)cc3)nn12` [Example 86, N-Butyl-4-[2-(4-fluorophenyl)-7-octylpyrazolo[1,5-a]pyridin-3-yl]-2-pyrimidinamine] was run?
A: 6 µM
